Test results: patent publication US12077503B2, “Substituted cyclic amides and their use as herbicides” (FMC CORPORATION, priority 2015, dated 2024)

Key:
Type in all cases: in vivo
[1] = test system: sedge, umbrella (small-flower umbrella sedge, Cyperus difformis); assay: Test B flooded paddy test; conditions: Cyperus difformis, 250 g ai/ha, Flood; 0 to 100 scale where 0 is no effect and 100 is complete control; read-out: Sedge, Umbrella plant response rating
Outline: (§1)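 2-leaf plants; pots flooded 3 cm over soil; cpd added to paddy water; depth held; greenhouse 13–15 d; visual rating vs controls, 0 = no effect, 100 = complete control.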

rice (Oryra sativa) = assay: Test B flooded paddy test; conditions: Oryza sativa, 250 g ai/ha, Flood; 0 to 100 scale where 0 is no effect and 100 is complete control; read-out: Rice plant response rating
Outline: as §1

[2] = test system: ducksalad (Heteranthera limosa); assay: Test B flooded paddy test; conditions: Heteranthera limosa, 250 g ai/ha, Flood; 0 to 100 scale where 0 is no effect and 100 is complete control; read-out: Ducksalad plant response rating
Outline: as §1

[3] = test system: barnyardgrass (Echinochloa crus-galli); assay: Test B flooded paddy test; conditions: Echinochloa crus-galli, 250 g ai/ha, Flood; 0 to 100 scale where 0 is no effect and 100 is complete control; read-out: Barnyardgrass plant response rating
Outline: as §1

[4] = test system: ragweed (common ragweed, Ambrosia elatior); assay: Test A preemergence; conditions: Ambrosia artemisiifolia, pre-emergence, 240 h, 0 to 100 scale where 0 is no effect and 100 is complete control, read-out: Ragweed plant response rating; for pest or weed control at 31 g/ha: 31 g ai/ha, Preemergence; for pest or weed control at 125 g/ha: 125 g ai/ha, preemergence, visual injury rating, approximately 10 d
Outline: (§2)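 Greenhouse, ~10 d after spray; visual injury vs untreated controls, 0 = no effect, 100 = complete control. Preemergence: directed soil spray over planted seeds. Postemergence: plants 2–10 cm, 1–2 leaf stage. Loam/sand blend. Compound in non-phytotoxic solvent with surfactant.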

[5] = test system: pigweed (Amaranthus retroflexus); assay: Test A preemergence; conditions: Amaranthus retroflexus, pre-emergence, 240 h, 0 to 100 scale where 0 is no effect and 100 is complete control, read-out: Pigweed plant response rating; for pest or weed control at 31 g/ha: 31 g ai/ha, Preemergence; for pest or weed control at 125 g/ha: 125 g ai/ha, preemergence, visual injury rating, approximately 10 d
[6] = test system: ryegrass, Italian (Italian ryegrass, Lolium multiflorum); assay: Test A preemergence; conditions: Lolium multiflorum, pre-emergence, 240 h, 0 to 100 scale where 0 is no effect and 100 is complete control, read-out: Ryegrass, Italian plant response rating; for pest or weed control at 31 g/ha: 31 g ai/ha, Preemergence; for pest or weed control at 125 g/ha: 125 g ai/ha, preemergence, visual injury rating, approximately 10 d
Outline: as §2

[7] = test system: giant foxtail (Setaria faberii); assay: Test A preemergence; conditions: Setaria faberi, pre-emergence, 240 h, 0 to 100 scale where 0 is no effect and 100 is complete control, read-out: Foxtail, Giant plant response rating; for pest or weed control at 31 g/ha: 31 g ai/ha, Preemergence; for pest or weed control at 125 g/ha: 125 g ai/ha, preemergence, visual injury rating, approximately 10 d
Outline: as §2

Kochia (Kochia scoparia) [8] = assay: Test A preemergence; conditions: Bassia scoparia, pre-emergence, 240 h, 0 to 100 scale where 0 is no effect and 100 is complete control, read-out: Kochia plant response rating; for pest or weed control at 31 g/ha: 31 g ai/ha, Preemergence; for pest or weed control at 125 g/ha: 125 g ai/ha, preemergence, visual injury rating, approximately 10 d
Outline: as §2

[9] = test system: barnyardgrass (Echinochloa crus-galli); assay: Test A preemergence; conditions: Echinochloa crus-galli, pre-emergence, 240 h, 0 to 100 scale where 0 is no effect and 100 is complete control, read-out: Barnyardgrass plant response rating; for pest or weed control at 31 g/ha: 31 g ai/ha, Preemergence; for pest or weed control at 125 g/ha: 125 g ai/ha, preemergence, visual injury rating, approximately 10 d
Outline: as §2

[10] = test system: ragweed (common ragweed, Ambrosia elatior); assay: Test A postemergence; conditions: Ambrosia artemisiifolia, post-emergence, 240 h, Postemergence, read-out: Ragweed plant response rating (0 to 100 scale); for pest or weed control at 125 g/ha: 125 g ai/ha, visual rating about 10 d after treatment; for pest or weed control at 31 g/ha: 31 g ai/ha, 0 is no effect, 100 is complete control
Outline: as §2

[11] = test system: wheat (Triticum aestivum); assay: Test A postemergence; conditions: Triticum aestivum, post-emergence, 240 h, Postemergence, read-out: Wheat plant response rating (0 to 100 scale); for plant injury at 125 g/ha: 125 g ai/ha, visual rating about 10 d after treatment; for plant injury at 31 g/ha: 31 g ai/ha, 0 is no effect, 100 is complete control
Outline: as §2

corn (Zea mays) = assay: Test A postemergence; conditions: Zea mays, post-emergence, 240 h, Postemergence, read-out: Corn plant response rating (0 to 100 scale); for plant injury at 125 g/ha: 125 g ai/ha, visual rating about 10 d after treatment; for plant injury at 31 g/ha: 31 g ai/ha, 0 is no effect, 100 is complete control
Outline: as §2

[12] = test system: pigweed (Amaranthus retroflexus); assay: Test A postemergence; conditions: Amaranthus retroflexus, post-emergence, 240 h, Postemergence, read-out: Pigweed plant response rating (0 to 100 scale); for pest or weed control at 125 g/ha: 125 g ai/ha, visual rating about 10 d after treatment; for pest or weed control at 31 g/ha: 31 g ai/ha, 0 is no effect, 100 is complete control
Outline: as §2

[13] = test system: Galium (catchweed bedstraw, Galium aparine); assay: Test A postemergence; conditions: Galium, post-emergence, 240 h, Postemergence, read-out: Galium plant response rating (0 to 100 scale); for pest or weed control at 125 g/ha: 125 g ai/ha, visual rating about 10 d after treatment; for pest or weed control at 31 g/ha: 31 g ai/ha, 0 is no effect, 100 is complete control
Outline: as §2

[14] = test system: blackgrass (Alopecurus myosuroides); assay: Test A postemergence; conditions: Alopecurus myosuroides, post-emergence, 240 h, Postemergence, read-out: Blackgrass plant response rating (0 to 100 scale); for pest or weed control at 125 g/ha: 125 g ai/ha, visual rating about 10 d after treatment; for pest or weed control at 31 g/ha: 31 g ai/ha, 0 is no effect, 100 is complete control
Outline: as §2

[15] = test system: ryegrass, Italian (Italian ryegrass, Lolium multiflorum); assay: Test A postemergence; conditions: Lolium multiflorum, post-emergence, 240 h, Postemergence, read-out: Ryegrass, Italian plant response rating (0 to 100 scale); for pest or weed control at 125 g/ha: 125 g ai/ha, visual rating about 10 d after treatment; for pest or weed control at 31 g/ha: 31 g ai/ha, 0 is no effect, 100 is complete control
Outline: as §2

[16] = test system: giant foxtail (Setaria faberii); assay: Test A postemergence; conditions: Setaria faberi, post-emergence, 240 h, Postemergence, read-out: Foxtail, Giant plant response rating (0 to 100 scale); for pest or weed control at 125 g/ha: 125 g ai/ha, visual rating about 10 d after treatment; for pest or weed control at 31 g/ha: 31 g ai/ha, 0 is no effect, 100 is complete control
Outline: as §2

Kochia (Kochia scoparia) [17] = assay: Test A postemergence; conditions: Bassia scoparia, post-emergence, 240 h, Postemergence, read-out: Kochia plant response rating (0 to 100 scale); for pest or weed control at 125 g/ha: 125 g ai/ha, visual rating about 10 d after treatment; for pest or weed control at 31 g/ha: 31 g ai/ha, 0 is no effect, 100 is complete control
Outline: as §2

[18] = test system: barnyardgrass (Echinochloa crus-galli); assay: Test A postemergence; conditions: Echinochloa crus-galli, post-emergence, 240 h, Postemergence; for pest or weed control at 125 g/ha: 125 g ai/ha, visual rating about 10 d after treatment, read-out: Barnyardgrass plant response rating (0 to 100 scale, 0 no effect, 100 complete control); for pest or weed control at 31 g/ha: 31 g ai/ha, 0 is no effect, 100 is complete control, read-out: Barnyardgrass plant response rating (0 to 100 scale)
Outline: as §2

SMILES: CN1C[C@H](c2csc3c2CCCC3)[C@@H](C(=O)Nc2cccc(F)c2F)C1=O [Compound 1276]
- pest or weed control at 250 g/ha [1]: 0%
- pest or weed control at 250 g/ha (rice (Oryra sativa)): 25%
- pest or weed control at 250 g/ha [2]: 90%
- pest or weed control at 250 g/ha [3]: 65%
- pest or weed control at 31 g/ha [4]: 20%
- pest or weed control at 125 g/ha [4]: 80%
- pest or weed control at 31 g/ha [5]: 0%
- pest or weed control at 125 g/ha [5]: 30%
- pest or weed control at 31 g/ha [6]: 0%
- pest or weed control at 125 g/ha [6]: 30%
- pest or weed control at 31 g/ha [7]: 90%
- pest or weed control at 125 g/ha [7]: 100%
- pest or weed control at 31 g/ha (Kochia (Kochia scoparia) [8]): 30%
- pest or weed control at 125 g/ha (Kochia (Kochia scoparia) [8]): 60%
- pest or weed control at 31 g/ha [9]: 90%
- pest or weed control at 125 g/ha [9]: 100%
- pest or weed control at 125 g/ha [10]: 0%
- pest or weed control at 31 g/ha [10]: 0%
- plant injury at 125 g/ha [11]: 0%
- plant injury at 31 g/ha [11]: 0%
- plant injury at 125 g/ha (corn (Zea mays)): 0%
- plant injury at 31 g/ha (corn (Zea mays)): 0%
- pest or weed control at 125 g/ha [12]: 0%
- pest or weed control at 31 g/ha [12]: 0%
- pest or weed control at 125 g/ha [13]: 0%
- pest or weed control at 31 g/ha [13]: 0%
- pest or weed control at 125 g/ha [14]: 0%
- pest or weed control at 31 g/ha [14]: 0%
- pest or weed control at 125 g/ha [15]: 0%
- pest or weed control at 31 g/ha [15]: 0%
- pest or weed control at 125 g/ha [16]: 60%
- pest or weed control at 31 g/ha [16]: 30%
- pest or weed control at 125 g/ha (Kochia (Kochia scoparia) [17]): 0%
- pest or weed control at 31 g/ha (Kochia (Kochia scoparia) [17]): 0%
- pest or weed control at 125 g/ha [18]: 100%
- pest or weed control at 31 g/ha [18]: 70%

SMILES: O=C1NC[C@H](c2csc3c2CCOC3)[C@H]1C(=O)Nc1cccc(F)c1F [Compound 1279]
- pest or weed control at 250 g/ha [1]: 0%
- pest or weed control at 250 g/ha (rice (Oryra sativa)): 30%
- pest or weed control at 250 g/ha [2]: 100%
- pest or weed control at 250 g/ha [3]: 40%
- pest or weed control at 31 g/ha [4]: 0%
- pest or weed control at 125 g/ha [4]: 0%
- pest or weed control at 31 g/ha [5]: 0%
- pest or weed control at 125 g/ha [5]: 0%
- pest or weed control at 31 g/ha [6]: 0%
- pest or weed control at 125 g/ha [6]: 0%
- pest or weed control at 31 g/ha [7]: 0%
- pest or weed control at 125 g/ha [7]: 20%
- pest or weed control at 31 g/ha (Kochia (Kochia scoparia) [8]): 0%
- pest or weed control at 125 g/ha (Kochia (Kochia scoparia) [8]): 0%
- pest or weed control at 31 g/ha [9]: 0%
- pest or weed control at 125 g/ha [9]: 70%
- pest or weed control at 125 g/ha [10]: 0%
- pest or weed control at 31 g/ha [10]: 0%
- plant injury at 125 g/ha [11]: 0%
- plant injury at 31 g/ha [11]: 0%
- plant injury at 125 g/ha (corn (Zea mays)): 0%
- plant injury at 31 g/ha (corn (Zea mays)): 0%
- pest or weed control at 125 g/ha [12]: 0%
- pest or weed control at 31 g/ha [12]: 0%
- pest or weed control at 125 g/ha [13]: 30%
- pest or weed control at 31 g/ha [13]: 0%
- pest or weed control at 125 g/ha [14]: 20%
- pest or weed control at 31 g/ha [14]: 0%
- pest or weed control at 125 g/ha [15]: 0%
- pest or weed control at 31 g/ha [15]: 0%
- pest or weed control at 125 g/ha [16]: 20%
- pest or weed control at 31 g/ha [16]: 0%
- pest or weed control at 125 g/ha (Kochia (Kochia scoparia) [17]): 0%
- pest or weed control at 31 g/ha (Kochia (Kochia scoparia) [17]): 0%
- pest or weed control at 125 g/ha [18]: 50%
- pest or weed control at 31 g/ha [18]: 0%
